Where “and” joins values, the source holds several entries; their conditions need not be identical. Identical values can stand only once. Entries after “also recorded” stand apart in the source; their conditions may differ.
Tests used:
[1] = system: scopolamine-induced amnesic mice; assay: Modified Y-maze test; format: in vivo; conditions: for Unfamiliar arm exploration / cognitive deficit, modified Y-maze vs scopolamine-treated group: i.p. 1 h before, scopolamine 1 mg/kg, doses as in the sentence; for Fold lower effective dose than PNU-282987, modified Y-maze: mouse, in vivo; for Minimum effective dose, Modified Y-maze: scopolamine induced amnesia model, ICR mice, i.p.
Description: The modified Y-maze test was performed to evaluate spatial working memory. The experiment was divided into 3 sessions; (i) IND8 at 5, 10, and 50 μmol/kg or 1.5, 2.9, and 14.7 mg/kg doses, (ii) QND8 at 5, 10, and 50 μmol/kg or 1.4, 2.7, 13.5 mg/kg doses, and (iii) IND8 and QND8 at dose of 25 μmol/kg or 7.3 and 6.8 mg/kg, respectively and PNU-282987 at […] or 3, 10 mg/kg doses.
FIG. 21 illustrates the percentage of unfamiliar arm exploration in modified Y-maze of IND8 (FIG. 21A), QND8 (FIG. 21B), and IND8, QND8, PNU-282987 (FIG. 21C). IND8, QND8, PNU-282987, vehicle (15% Tween80, SH) and tacrine (TC) were injected 1 h and scopolamine (SC) 30 min before sample phase, respectively. Each mouse was placed at the end of one arm and allowed to access 2 arms of Y-maze for 5 min in sample phase. After a 30 min period, the mouse was allowed to explore 3 arms for 5 min. The number of entries for each arm was recorded and the percentage of unfamiliar arm exploration was calculated. Data represented in means±standard errors (SE).
Male ICR mice (6-weeks of age) were housed in 5 per cage with free access to food and tap water under 12 h light and dark cycle (light on 6:00 to 18:00) in a temperature and humidity controlled room. They were acclimated in a laboratory at least 7 days prior to starting experiments. The experimental protocols were approved by the Animal Care and Use Committee of KhonKaen University, Thailand.
Tacrine hydrochloride (Sigma-Aldrich, St. Louis, Mo.), PNU-282987 hydrochloride (Alamone, Jerusalem, Israel) and test compounds were prepared as suspensions by using 15% tween 80 in distilled water as a vehicle, whereas scopolamine hydrochloride (Sigma-Aldrich, St. Louis, Mo.) and methyllycaconitine citrate (MLA) (Abcam, Cambridge, England) were prepared as a solution by dissolving with 0.9% normal saline solution (NSS). All compounds were administered by intraperitoneal (i.p.) injection in the amount of 5 mL/kg. Test compounds were injected 1 h and scopolamine was administered 30 min before the experiments, whereas MLA was injected 5 min before the test compounds.
Amnesia was induced pharmacologically in mice via scopolamine injection (single dose) for 30 min prior to start the experiments. They were divided into vehicle group: receiving 15% tween 80 and 0.9% NSS, amnesia group: receiving scopolamine 1 mg/kg, standard positive control group receiving tacrine 1 mg/kg, and test group: receiving IND8, QND8 at dose 5, 10, 25, 50 μmol/kg, or PNU-282987 3, 10 mg/kg, single dose. All mice were acclimated in an experimental room at least 30 min before the experiments.
The maze in this experiment is the same apparatus using in locomotor activity test except there is the black partition to close one of three arms. The mice were randomly separated into different treatment groups. They were injected with test compounds and scopolamine at 1 h and 30 min, respectively, before the sample phase. In this phase which one arm of Y-maze was closed by the black partition, each mouse was placed at the end of one arm and allowed to move through 2 arms for 5 min to get familiar with the two opened arms. After 30 min of resting, all arms were opened and the mouse was allowed to move freely through all 3 arms. The maze area and the partition were cleaned with 70% ethanol between each experiment to remove olfactory cues. The number of entries in each arm was counted visually if mice accessed into each arm at least 10 cm. The percentage of unfamiliar arm exploration was calculated as following equation: […]

[2] = system: physiologically induced amnesia mice; assay: ORT with 24 h time delay (natural memory loss); format: in vivo; conditions: i.p.; for Discrimination index / cognition enhancement, ORT time delay vs control group: 24 h delay; for Minimum effective dose, RT^§: physiologically induced amnesia (memory retention) model, ICR mice
Description: Both compounds were further evaluated on a physiologic amnesic model by using ORT with 24 h time delay to induce natural memory loss in mice. The appropriate time delay causing amnesia was initially selected by varying delay times (24, 48, and 72 h) between sample and test phase that have identical and different objects, respectively. […] Therefore, 24 h was used as the time delay between sample and test phase.
FIG. 27 illustrates exploration time to familiar (F) and novel (N) objects in test phase of ORT following a time delay. Each mouse was allowed to explore an open field apparatus for 5 min in a habituation phase one day before a sample phase. In the test day, vehicle (SH) and test compounds IND8, QND8 and PNU were injected 1 h before measurement of exploration time. Each mouse was allowed to explore 2 identical objects in the sample phase for 5 min. On the next day (24 h), one of the objects was changed to a new one and the mouse was allowed to explore these objects for 5 min. The exploration time of these objects was recorded. Data are presented as means±SE, n=6-8 mice/group. **p<0.01, ***p<0.001 vs exploration time of familiar object, paired student's t-test.
The DI was calculated and compared with the control group to evaluate IND8, QND8, and PNU-282987 enhancement of cognitive function. Data are shown in FIG. 28, which illustrates discrimination index (TN−TF/TN+TF) of each compound in the test phase of ORT with time delay protocol. There was a significant difference in DI (F6,43=6.097, p<0.001, n=6-8 mice/group). **p<0.01, ***p<0.001 vs vehicle group (SH), one-way ANOVA with Fisher's LSD post hoc comparison.
The apparatus used in this experiment was the same as ORT test. This experiment was divided into 2 parts directed to dose finding and establishing mechanism of action.
For dose finding protocol, the mice were randomly divided into different treatment groups, a control group receiving a vehicle and tested groups receiving PNU-282987 at 3, 10 mg/kg, and IND8, QND8 for 10, 25 μmol/kg, single dose. They were allowed to freely explore the open field apparatus for 5 min for habituation in a day before the experiment (day 1). On the test day (day 2), the test compound was injected 1 h before the sample phase. In this phase, mice were placed in the apparatus to explore two identical objects. On the next day (day 3), one object was changed to a new one and mice were allowed to explore these objects for 5 min in the test phase. For proving cognitive enhancement mediated through α7-nAChRs, the protocol was the same as mentioned above except MLA (3 mg/kg), selective α7-nAChR antagonist, was injected 5 min before test compounds in the sample phase (day 2) to block the cognitive enhancement effect from test compounds. The dose of test compounds is selected from the effective dose from the former experiment. The exploration time of each object was recorded if the nose of mouse came within 3 cm or touched the objects. The discrimination index (DI) was calculated by using (TN−TF)/(TN+TF); TN and TF represented exploration time of new and familiar objects, respectively.

[3] = target: α7/5HT3A chimera receptor (hα7/m5HT3A), used for α7-nAChRs (UniProt P23979+P36544, M226I/T225I); assay: Intact cell competitive radioligand binding assay ([3H]-(±)-epibatidine, SPA), LGIC-CNiFERs; conditions: read-out: Kd ± SD, α7-nAChRs; >10 = did not pass initial screen at 10 μM
α7/5HT3A chimera receptor (hα7/m5HT3A), used for α7-nAChRs, sequence (P36544+P23979 fused P36544:T225I/P36544:M226I): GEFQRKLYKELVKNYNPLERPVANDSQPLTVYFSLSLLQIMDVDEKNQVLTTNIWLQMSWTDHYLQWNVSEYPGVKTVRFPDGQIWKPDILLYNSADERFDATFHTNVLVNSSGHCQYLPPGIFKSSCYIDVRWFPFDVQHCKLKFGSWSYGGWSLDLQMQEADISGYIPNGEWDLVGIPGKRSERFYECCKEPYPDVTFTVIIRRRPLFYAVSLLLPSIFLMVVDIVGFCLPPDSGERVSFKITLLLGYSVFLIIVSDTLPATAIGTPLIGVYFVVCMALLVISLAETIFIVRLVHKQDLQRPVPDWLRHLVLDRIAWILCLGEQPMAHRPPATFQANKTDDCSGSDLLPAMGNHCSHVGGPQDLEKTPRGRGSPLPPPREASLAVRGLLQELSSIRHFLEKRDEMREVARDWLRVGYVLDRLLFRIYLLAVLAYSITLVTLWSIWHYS
Description: All synthesized compounds were screened for the binding potential with cell based neurotransmitter fluorescent engineered reporters (CNiFERs) expressed α7-nAChRs, α4β2-nAChRs, and 5HT3A receptors. The whole cell binding assay was performed by competitive radioligand binding assay (RBA) using [^3H]-(±)-epibatidine for α7- and α4β2-nAChRs and [^3H]-granisetron for 5HT3A receptors. […] Compounds at 10 μM concentration that dissociated [^3H]-(±)-epibatidine or [^3H]-granisetron binding to LGIC-CNiFERs more than 50% were further determined over a range of concentrations for Kd values.
Cell lines expressing specific subtypes of receptors and a genetically encoded fluorescence resonance energy transfer (FRET)-based calcium sensor (TN-XXL) were prepared^29. The human α7-nAChRs and α4β2-nAChRs were expressed in HEKtsA201 cells, whereas hα7/m5HT3A chimeric receptors and mouse 5HT3A receptors were expressed in HEK293 cells. Cells were cultured in DMEM (Corning, Cellgro, Manassas, Va.) supplemented with 10% FBS (Gibco, Life Technologies, Grand Island, N.Y.) and 1% glutamine (Gibco, Life Technologies, Grand Island, N.Y.) and incubated at 37° C. with 10% CO2.
Cell based neurotransmitter fluorescent engineered reporters (CNiFERs) expressing Ca^2+ permeable LGIC receptors were used to determine the Kd values of the compounds. Cells were harvested by centrifugation (Beckman coulter, Brea, Calif.) at 500 rpm for 5 min, and then mixed and incubated on ice for 30 min, after counting, with Wheat Germ Agglutinin SPA beads (20 mg/mL) (Perkin Elmer, Waltham, Mass.) in Hank's Balanced Salt Solution (HBSS) (Gibco, Life Technologies, Grand Island, N.Y.) at the specified concentrations: 1) hα7/m5HT3A chimera-TN-XXL: 200K cells/well, 1 mg/mL SPA beads 2) hα4β2-TN-XXL: 100K cells/well, 0.5 mg/mL SPA beads, and 3) m5HT3A-TN-XXL: 100K cells/well, 1 mg/mL SPA beads. The compounds were initially screened at 10 μM final concentration. Nonspecific binding was measured by using 100 μM of MLA (Tocris Bioscience, Bristol, UK) for α7/5HT3A chimeric receptors, 10 μM of varenicline (Tocris Bioscience, Bristol, UK) for α4β2-nAChR, and 300 nM of tropisetron (Tocris Bioscience, Bristol, UK) for 5HT3A receptors. After that, the radioactive ligands were added at nM final concentration of [^3H]-(±)-epibatidine for α7/5HT3A chimeric receptors, 5 nM of [^3H]-(±)-epibatidine for α4β2-nAChR, and 10 nM of [^3H]-granisetron for 5HT3A receptors. The mixtures were measured on the Wallac 1450 MicroBeta® Trilux with 1 h intervals for a total of measurements. […] Mean Kd values and standard deviations were calculated from at least 3 independent experiments.

| SMILES | Unfamiliar arm exploration / cognitive deficit, modified Y-maze vs scopolamine-treated group [1] | Fold lower effective dose than PNU-282987, modified Y-maze [1] | Minimum effective dose, Modified Y-maze [1] | Discrimination index / cognition enhancement, ORT time delay vs control group [2] | Minimum effective dose, RT^§ [2] | Kd [3] |
| --- | --- | --- | --- | --- | --- | --- |
| c1cc2cc(-c3cn(C4CN5CCC4CC5)nn3)ccc2[nH]1 (stereo not shown) [IND8, 5-((Quinuclid-3-yl)-1H-1,2,3-triazol-4-yl)-1H-indole] | reversed the cognitive deficit induced by scopolamine | seven-fold | 5 µmol/kg | able to enhance cognition; also recorded: significantly higher than that of control group | 10 µmol/kg | 120 nM |
| O=C(N[C@H]1CN2CCC1CC2)c1ccc(Cl)cc1 [PNU-282987, reference compound] |  |  | 33 µmol/kg | able to enhance cognition; also recorded: significantly higher than that of control group | 10 µmol/kg | 270 ± 140 nM |
| Oc1ccc(-c2cn(C3CN4CCC3CC4)nn2)cc1 (stereo not shown) [QND8, 3-(4-hydroxyphenyl-1,2,3-triazol-1-yl) quinuclidine] | improved the cognitive deficit significantly only at the 2.7 mg/kg dose | four-fold | 10 µmol/kg | able to enhance cognition; also recorded: significantly higher than that of control group | 10 µmol/kg | 80 nM and 81 nM |

Reference: patent US20180244653A1, “SELECTIVE ALPHA-7 NICOTINIC RECEPTOR AGONISTS AND METHODS FOR MAKING AND USING THEM” (THE REGENTS OF THE UNIVERSITY OF CALIFORNIA, priority 2015, published 2018)
